Data as given in US12097241B2, “Methods of treating kidney failure, and/or improving or stablizing renal function using modified relaxin polypeptides” (BRISTOL-MYERS SQUIBB COMPANY, priority 2017, dated 2024).
“Also recorded” adds a separate entry of the source. Marks after values point to notes of the source that are not given here. Square brackets hold non-standard residues; d marks the D form. Ends that are not written are not given here. Phe(4-Ac) = CC(=O)c1ccc(C[C@H](N)C(=O)O)cc1

Assay: Rat renal blood flow studies
Format: in vivo, Sprague Dawley rats
Conditions: 1 mg/kg intravenously; for % change in RBF over baseline: anesthetized male Sprague Dawley rats, renal blood flow recorded for 45 min
Protocol: Male Sprague Dawley rats (˜250-300 g) were anesthetized with sodium pentobarbital (50 mg/kg), the trachea was cannulated with PE-205 tubing to maintain airway patency, and temperature was maintained at 37° C. with a heated surgical plate. A 1.4 F pressure catheter (Millar Inc., Houston, TX) was advanced into the right carotid artery to measure aortic blood pressure. The right jugular vein was cannulated with PE-50 tubing for administration of test articles. The left kidney was exposed by a retroperitoneal incision, and a Doppler flow probe (Model 0.5 VB, Transonic System Inc., Ithaca, NY) was attached to the left renal artery to monitor blood flow. Sodium pentobarbital (15 mg/kg, intraperitoneal) was supplemented after completion of these surgical procedures. Following a 10-15 min equilibration, the relaxin was administered at 1 mg/kg intravenously in a dosing volume of 0.15 to 1.82 mL/kg over 30 seconds via an infusion pump (Harvard Apparatus, Holliston, MA). Blood pressure, heart rate and renal blood flow were continuously recorded for 45 min after relaxin administration using a Millar MPVS Ultra Signal Conditioning unit connected to a desktop computer running LabChart 7-Pro data acquisition software (ADInstruments, Dunedin, New Zealand) (Table 5). Table 5. Rat renal blood flow changes (abbreviations as in Table 3).

Row | Compound | % change in RBF over baseline | effect on renal blood flow (in words) (rats) | effect on renal blood flow (in words) (rats, 1 mg/kg) | death of animals after administration (rats, necropsy pale kidneys, 1 mg/kg)
1 | BM25/AN1: human relaxin 2 with pAcF at B chain position 25 and asparagine at A chain position 1 (SEQ ID NO: 36, 37) (chain 1 NLYSALANKCCHVGCTKRSLARFC; chain 2 ASWMEEVIKLCGRELVRAQIAICG[Phe(4-Ac)]STWS; disulfide (positions not given here); ends not checked) | −20% | impaired renal blood flow |  | 
2 | CC[C@H](C)[C@@H]1NC(=O)[C@H](C)NC(=O)[C@H]([C@@H](C)CC)NC(=O)[C@H](CCC(N)=O)NC(=O)[C@H](C)NC(=O)[C@H](CCCNC(=N)N)NC(=O)[C@H](C(C)C)NC(=O)[C@H](CC(C)C)NC(=O)[C@H](CCC(=O)O)NC(=O)[C@H](CCCNC(=N)N)NC(=O)CNC(=O)[C@@H](NC(=O)[C@H](CC(C)C)NC(=O)[C@H](CCCCN)NC(=O)[C@@H](NC(=O)[C@@H](NC(=O)[C@H](CCC(=O)O)NC(=O)[C@H](CCC(=O)O)NC(=O)[C@H](CCSC)NC(=O)[C@H](Cc2c[nH]c3ccccc23)NC(=O)[C@H](CO)NC(=O)[C@H](C)N)C(C)C)[C@@H](C)CC)CSSC[C@@H]2NC(=O)[C@@H](NC(=O)[C@H](CCCCN)NC(=O)[C@H](CC(N)=O)NC(=O)[C@H](C)NC(=O)[C@H](CC(C)C)NC(=O)[C@H](C)NC(=O)[C@H](CO)NC(=O)[C@H](Cc3ccc(O)cc3)NC(=O)[C@H](CC(C)C)NC(=O)[C@@H](N)Cc3ccc(/C(C)=N/OCCNC(=O)CC[C@H](NC(=O)CCCCCCCCCCCCC(=O)O)C(=O)O)cc3)CSSC[C@H](NC(=O)CNC(=O)[C@H](C(C)C)NC(=O)[C@H](Cc3c[nH]cn3)NC2=O)C(=O)N[C@@H]([C@@H](C)O)C(=O)N[C@@H](CCCCN)C(=O)N[C@@H](CCCNC(=N)N)C(=O)N[C@@H](CO)C(=O)N[C@@H](CC(C)C)C(=O)N[C@@H](C)C(=O)N[C@@H](CCCNC(=N)N)C(=O)N[C@@H](Cc2ccccc2)C(=O)N[C@H](C(=O)O)CSSC[C@@H](C(=O)NCC(=O)N[C@@H](CCSC)C(=O)N[C@@H](CO)C(=O)N[C@H](C(=O)N[C@@H](Cc2c[nH]c3ccccc23)C(=O)N[C@@H](CO)C(=O)O)[C@@H](C)O)NC1=O [AQ1-Glu-C13-COOH] | +14^b % |  |  | 
3 | CCCCCCCCCCCCCC(=O)NCCO/N=C(\C)c1ccc(C[C@H](NC(=O)CNC(=O)[C@@H]2CSSC[C@@H](C(=O)O)NC(=O)[C@H](Cc3ccccc3)NC(=O)[C@H](CCCNC(=N)N)NC(=O)[C@H](C)NC(=O)[C@H](CC(C)C)NC(=O)[C@H](CO)NC(=O)[C@H](CCCNC(=N)N)NC(=O)[C@H](CCCCN)NC(=O)[C@H]([C@@H](C)O)NC(=O)[C@@H]3CSSC[C@H](NC(=O)[C@H](CCCCN)NC(=O)[C@H](CC(N)=O)NC(=O)[C@H](C)NC(=O)[C@H](CC(C)C)NC(=O)[C@H](C)NC(=O)[C@H](CO)NC(=O)[C@H](Cc4ccc(O)cc4)NC(=O)[C@H](CC(C)C)NC(=O)[C@@H](N)CC(N)=O)C(=O)N[C@@H](CSSC[C@H](NC(=O)[C@H](CC(C)C)NC(=O)[C@H](CCCCN)NC(=O)[C@@H](NC(=O)[C@@H](NC(=O)[C@H](CCC(=O)O)NC(=O)[C@H](CCC(=O)O)NC(=O)[C@H](CCSC)NC(=O)[C@H](Cc4c[nH]c5ccccc45)NC(=O)[C@H](CO)NC(=O)[C@H](C)N)C(C)C)[C@@H](C)CC)C(=O)NCC(=O)N[C@@H](CCCNC(=N)N)C(=O)N[C@@H](CCC(=O)O)C(=O)N[C@@H](CC(C)C)C(=O)N[C@@H](C(C)C)C(=O)N[C@@H](CCCNC(=N)N)C(=O)N[C@@H](C)C(=O)N[C@@H](CCC(N)=O)C(=O)N[C@@H]([C@@H](C)CC)C(=O)N[C@@H](C)C(=O)N[C@@H]([C@@H](C)CC)C(=O)N2)C(=O)N[C@@H](Cc2c[nH]cn2)C(=O)N[C@@H](C(C)C)C(=O)NCC(=O)N3)C(=O)N[C@@H](CO)C(=O)N[C@H](C(=O)N[C@@H](Cc2c[nH]c3ccccc23)C(=O)N[C@@H](CO)C(=O)O)[C@@H](C)O)cc1 [BM25/AN1-C13-CH3] | −100^a % |  | impaired renal blood flow; also recorded: decreased renal blood flow | fatal
